Source: patent publication US9834558B2, “Substituted bridged urea analogs as sirtuin modulators” (GLAXOSMITHKLINE LLC, priority 2013, dated 2017)
Counter-ions that a name gives are not always drawn. Like-named read-outs stand apart in the source and are kept apart here.

Target: T1, SIRT1 (Homo sapiens, UniProt Q96EB6)
T1 sequence (Q96EB6 1-747): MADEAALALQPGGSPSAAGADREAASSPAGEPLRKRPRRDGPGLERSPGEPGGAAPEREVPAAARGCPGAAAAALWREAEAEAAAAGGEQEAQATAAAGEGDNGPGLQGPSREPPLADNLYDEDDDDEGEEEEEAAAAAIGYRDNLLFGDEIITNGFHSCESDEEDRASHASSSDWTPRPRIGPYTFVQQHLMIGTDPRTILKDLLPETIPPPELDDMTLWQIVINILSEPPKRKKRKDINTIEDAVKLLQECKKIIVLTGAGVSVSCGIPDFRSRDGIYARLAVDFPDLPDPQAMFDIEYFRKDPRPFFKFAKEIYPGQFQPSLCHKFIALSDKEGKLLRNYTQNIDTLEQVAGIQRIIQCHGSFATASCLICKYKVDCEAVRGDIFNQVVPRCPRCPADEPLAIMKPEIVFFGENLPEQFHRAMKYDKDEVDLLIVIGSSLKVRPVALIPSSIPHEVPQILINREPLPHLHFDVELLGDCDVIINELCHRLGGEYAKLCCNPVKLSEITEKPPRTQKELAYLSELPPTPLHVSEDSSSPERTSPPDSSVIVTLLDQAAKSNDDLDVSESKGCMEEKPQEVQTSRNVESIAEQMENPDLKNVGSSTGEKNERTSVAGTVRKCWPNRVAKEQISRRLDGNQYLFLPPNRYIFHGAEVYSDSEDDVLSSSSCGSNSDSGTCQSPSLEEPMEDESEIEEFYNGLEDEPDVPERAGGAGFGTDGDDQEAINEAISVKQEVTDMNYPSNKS
Test: Trp mass spectrometry assay of SIRT1 activation
Type: biochemical
Details: for TRP Activity (EC1.5): EC1.5 = concentration that results in 150% activation of SIRT1
In short: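 Activation read-out: mass-spec measurement of O-acetyl-ADP-ribose or deacetylated Trp peptide versus compound-free controls, giving EC1.5 and Percent Maximum Activation. Reactions ran 25 min at 25 °C, pH 7.5, with 120 μM βNAD+, 0.5 μM acetylated p53-derived peptide and 10 nM His-tagged SIRT1.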

[1] = Trp peptide assay, maximum activity relative to control (100%), read-out: TRP MAX RESP (percent maximum fold activation)
[2] = concentration giving 150% activation of SIRT1, Trp peptide substrate
[3] = Trp mass spectrometry assay, concentration of test compound giving 150% activation of SIRT1
[4] = Trp mass spectrometry assay, EC1.5 = concentration of test compound that results in 150% activation of SIRT1

TRP Activity (EC1.5) (Trp peptide assay)	Emax [1] [%]	SMILES	also measured
B (B (EC1.5 1-25 μM))	> 150	Cc1ccc(-c2ccc3c(n2)N(C(=O)NCC2CC2)[C@H]2CCN3C2)cn1 [(9S)-N-(cyclopropylmethyl)-5-(6-methylpyridin-3-yl)-1,6,8-triazatricyclo[7.2.1.0^{2,7}]dodeca-2,4,6-triene-8-carboxamide]	
		C#CNc1nccc(NC(=O)N2c3nc(-c4cccc(C5(C(F)(F)F)N=N5)c4)ccc3N3CC[C@H]2C3)n1 [Example 809]	Tryp AVG EC1.5 (μM) [2]: B (B (EC1.5 1-25 μM)); Emax (percent maximum fold activation of SIRT1, Trp peptide substrate, read-out: Tryp % Fold Act): > 150%
		O=C(Nc1cccc(-c2cnco2)c1)N1c2nc(-c3cccc(Cl)c3)ccc2N2CC[C@H]1C2 [Example 365]	Tryp AVG EC1.5 (μM) [3]: A (A (EC1.5<1 μM))
		O=C(Nc1cccc(-c2cnco2)c1)N1c2nc(-c3cccc(Cl)c3)ccc2N2CCC1CC2 [Example 497]	Tryp AVG EC1.5 (μM) [4]: A (A (EC1.5<1 μM))
C (C (EC1.5>25 μM))	< 150	Cc1cc(-c2ccc3c(n2)N(C(=O)N2CCO[C@H](C)C2)[C@H]2CCN3C2)ccn1 [(9S)-8-{[(2R)-2-methylmorpholin-4-yl]carbonyl}-5-(2-methylpyridin-4-yl)-1,6,8-triazatricyclo[7.2.1.0 {2,7}]dodeca-2(7),3,5-triene hydrochloride]	
		O=C(Nc1ccccn1)N1c2nc(-c3cccc(Cl)c3)ccc2N2CCC1CC2 [Example 533]	Tryp AVG EC1.5 (μM) [4]: B (B (EC1.5 1-25 μM))
B (B (EC1.5 1-25 μM))	> 150	O=C(NC1CCCOC1)c1ccc2c(n1)N(C(=O)Nc1ccccn1)[C@H]1CCN2C1 (stereo partly drawn) [(9S)-5-N-(oxan-3-yl)-8-N-(pyridin-2-yl)-1,6,8-triazatricyclo[7.2.1.0 {2,7}]dodeca-2(7),3,5-triene-5,8-dicarboxamide]	
		O=C(Nc1cncc(F)c1)N1c2nc(-c3cccc(C(F)(F)F)c3)ccc2N2C[C@@H](O)[C@H]1C2 [Example 630]	Tryp AVG EC1.5 (μM) [2]: A (A (EC1.5<1 μM))
B (B (EC1.5 1-25 μM))	> 150	O=C(Nc1cnccn1)N1c2nc(-c3ccc(OC(F)F)nc3)ccc2N2CC[C@H]1C2 [(9S)-5-[6-(difluoromethoxy)pyridin-3-yl]-N-(pyrazin-2-yl)-1,6,8-triazatricyclo[7.2.1.0 {2,7}]dodeca-2(7),3,5-triene-8-carboxamide]	
B (B (EC1.5 1-25 μM))	> 150	Cc1cc(C)c(-c2ccc3c(n2)N(C(=O)Nc2cccnc2)[C@H]2CCN3C2)cn1 [(9S)-5-(4,6-dimethylpyridin-3-yl)-N-(pyridin-3-yl)-1,6,8-triazatricyclo[7.2.1.0 {2,7}]dodeca-2(7),3,5-triene-8-carboxamide]	
		Cc1n[nH]cc1-c1ccc2c(n1)N(C(=O)Nc1ccccn1)[C@H]1CCN2C1 [Example 370]	Tryp AVG EC1.5 (μM) [3]: B (B (EC1.5 1-25 μM))
		CC(=O)c1ccc(NC(=O)N2c3nc(-c4cccc(C(F)(F)F)c4)ccc3N3CC[C@H]2C3)cc1 [Example 668]	Tryp AVG EC1.5 (μM) [2]: A (A (EC1.5<1 μM))
A (A (EC1.5<1 μM))	> 150	O=C(Nc1cccnc1)N1c2nc(N3CCC[C@H](C(F)(F)F)C3)ccc2N2CCC[C@H]1C2 [(9S)-N-(pyridin-3-yl)-5-[(3S)-3-(trifluoromethyl)piperidin-1-yl]-1,6,8-triazatricyclo[7.3.1.0 {2,7}]trideca-2(7),3,5-triene-8-carboxamide]	
		Cc1ccncc1-c1ccc2c(n1)N(C(=O)Nc1ccccn1)[C@H]1CCCN2C1 [Example 505]	Tryp AVG EC1.5 (μM) [4]: C (C (EC1.5>25 μM))
		N=C(NCCN)c1ccc(NC(=O)N2c3nc(-c4cccc(C(F)(F)F)c4)ccc3N3CCC[C@H]2C3)cc1 [Example 792]	Tryp AVG EC1.5 (μM) [2]: A (A (EC1.5<1 μM))
		O=C(Nc1nnc(-c2ccccn2)o1)N1c2nc(-c3cccc(C(F)(F)F)c3)ccc2N2CC[C@H]1C2 [Example 720]	Tryp AVG EC1.5 (μM) [2]: A (A (EC1.5<1 μM))
		CS(=O)(=O)c1cncc(-c2ccc3c(n2)N(C(=O)Nc2cnccn2)[C@H]2CCCN3C2)c1 [Example 378]	Tryp AVG EC1.5 (μM) [3]: A (A (EC1.5<1 μM))
		O=C1CN2C[C@H]1N(C(=O)Nc1ccccn1)c1nc(-c3cccc(C(F)(F)F)c3)ccc12 [Example 620]	Tryp AVG EC1.5 (μM) [4]: B (B (EC1.5 1-25 μM))

TRP Activity (EC1.5) (Trp peptide assay)	Emax [1] [%]	SMILES	also measured
		O=C(Nc1cccc(-c2cnco2)c1)N1c2nc(-c3cccc(Cl)c3)ccc2N2C[C@@H](O)[C@H]1C2 [Example 683]	Tryp AVG EC1.5 (μM) [2]: A (A (EC1.5<1 μM))
		NC(=O)c1ccc(NC(=O)N2c3nc(-c4cccc(C(F)(F)F)c4)ccc3N3CC[C@H]2C3)cc1 [Example 659]	Tryp AVG EC1.5 (μM) [2]: A (A (EC1.5<1 μM))
		Cc1nc(NC(=O)N2c3nc(-c4cncc(Cl)c4)ccc3N3CCC[C@H]2C3)sc1C [Example 402]	Tryp AVG EC1.5 (μM) [3]: A (A (EC1.5<1 μM))
		Cc1cncc(-c2ccc3c(n2)N(C(=O)Nc2cnccn2)[C@H]2CCCN3C2)c1 [Example 512]	Tryp AVG EC1.5 (μM) [4]: B (B (EC1.5 1-25 μM))
		O=C(Nc1ccccn1)N1c2nc(-c3ccnc(N4CCC(F)(F)C4)c3)ccc2N2CC[C@H]1C2 [Example 388]	Tryp AVG EC1.5 (μM) [3]: A (A (EC1.5<1 μM))
		O=C(Nc1cncc(F)c1)N1c2nc(-c3cccc(C(F)(F)F)c3)ccc2S(=O)(=O)N2CC[C@H]1C2 [Example 460]	Tryp AVG EC1.5 (μM) [4]: B (B (EC1.5 1-25 μM))
B (B (EC1.5 1-25 μM))	> 150	Cn1ccc(-c2ccc3c(n2)N(C(=O)Nc2cccnc2)[C@H]2CCN3C2)cc1=O [(9S)-5-(1-methyl-2-oxo-1,2-dihydropyridin-4-yl)-N-(pyridin-3-yl)-1,6,8-triazatricyclo[7.2.1.0 {2,7}]dodeca-2(7),3,5-triene-8-carboxamide]	
		N#Cc1cccc(-c2ccc3c(n2)N(C(=O)Nc2cnccn2)[C@H]2CCCN3C2)c1 [Example 351]	Tryp AVG EC1.5 (μM) [3]: A (A (EC1.5<1 μM))
B (B (EC1.5 1-25 μM))	> 150	Cc1cc(-c2ccc3c(n2)N(C(=O)Nc2cnccn2)[C@H]2CCN3C2)[nH]n1 [(9S)-5-(3-methyl-1H-pyrazol-5-yl)-N-(pyrazin-2-yl)-1,6,8-triazatricyclo[7.2.1.0^{2,7}]dodeca-2(7),3,5-triene-8-carboxamide]	
A (A (EC1.5<1 μM))	> 150	COCC(NC(=O)c1ccc2c(n1)N(C(=O)Nc1ccccn1)[C@H]1CCN2C1)C(F)(F)F (stereo partly drawn) [(9S)-8-N-(pyridin-2-yl)-5-N-(1,1,1-trifluoro-3-methoxypropan-2-yl)-1,6,8-triazatricyclo[7.2.1.0^{2,7}]dodeca-2(7),3,5-triene-5,8-dicarboxamide]	
B (B (EC1.5 1-25 μM))	> 150	Cc1cc(NC(=O)N2c3nc(-c4ccnc(C)c4)ccc3N3CC[C@H]2C3)ccn1 [(9S)-N,5-bis(2-methylpyridin-4-yl)-1,6,8-triazatricyclo[7.2.1.0 {2,7}]dodeca-2(7),3,5-triene-8-carboxamide]	
		O=C(Nc1cccnc1)N1c2nc(-c3cccc(C(F)(F)F)c3)ccc2N2CCC[C@H]1C2 [314 (5)]	Tryp AVG EC1.5 (μM) [3]: A (A (EC1.5<1 μM))
B (B (EC1.5 1-25 μM))	> 150	O=C(Nc1ccccn1)N1c2nc(N3CCC[C@H](C(F)(F)F)C3)ccc2N2CC[C@H]1C2 [(9S)-N-(pyridin-2-yl)-5-[(3S)-3-(trifluoromethyl)piperidin-1-yl]-1,6,8-triazatricyclo[7.2.1.0 {2,7}]dodeca-2,4,6-triene-8-carboxamide]	
		O=C(Nc1cccc(-c2cnco2)c1)N1c2nc(N3CCCN(CC(F)(F)F)CC3)ccc2N2CC[C@H]1C2 [Example 741]	Tryp AVG EC1.5 (μM) [2]: A (A (EC1.5<1 μM))
		Cc1cncc(NC(=O)N2c3nc(-c4cncc(C(F)(F)F)c4)ccc3N3C[C@@H](O)[C@H]2C3)c1 [Example 690]	Tryp AVG EC1.5 (μM) [2]: B (B (EC1.5 1-25 μM))
A (A (EC1.5<1 μM))	> 150	O=C(Nc1cncnc1)N1c2nc(-c3ccnc(C(F)(F)F)c3)ccc2N2CCC[C@H]1C2 [(9S)-N-(pyrimidin-5-yl)-5-[2-(trifluoromethyl)pyridin-4-yl]-1,6,8-triazatricyclo[7.3.1.0 {2,7}]trideca-2(7),3,5-triene-8-carboxamide]	
A (A (EC1.5<1 μM))	> 150	O=C(Nc1cncc(OC[C@H](O)CO)n1)N1c2nc(-c3cccc(C(F)(F)F)c3)ccc2N2CC[C@H]1C2 [(9S)-N-{6-[(2R)-2,3-dihydroxypropoxy]pyrazin-2-yl}-5-[3-(trifluoromethyl)phenyl]-1,6,8-triazatricyclo[7.2.1.0 {2,7}]dodeca-2(7),3,5-triene-8-carboxamide]	
		O=C(Nc1cncc(F)c1)N1c2nc(-c3ccnc(N4CCC(C(F)(F)F)C4)c3)ccc2N2CC[C@H]1C2 (some centres unmarked) [Example 410]	Tryp AVG EC1.5 (μM) [3]: A (A (EC1.5<1 μM))
